Results taken from PubChem BioAssay (NCI).
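Interpolation was linear, between the two tested concentrations surrounding the appropriate level; five concentrations were tested over 48 hours in 96-well plates. Here, GI50 denotes the concentration required for 50% inhibition of growth. TGI marks complete inhibition of growth.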

Experiments:
Assay in all cases: NCI-60 cell line screen, 48 h
HOP-18 NSCLC = system: HOP-18 NSCLC
SF-539 CNS = system: SF-539 CNS
UACC-62 melanoma = system: UACC-62 melanoma
SNB-78 CNS = system: SNB-78 CNS
DMS 114 small cell lung = system: DMS 114 small cell lung
OVCAR-3 ovarian = system: OVCAR-3 ovarian
M19-MEL melanoma = system: M19-MEL melanoma
DMS 273 small cell lung = system: DMS 273 small cell lung
DLD-1 colon = system: DLD-1 colon
KM20L2 colon = system: KM20L2 colon
RPMI-8226 leukemia = system: RPMI-8226 leukemia
SF-295 CNS = system: SF-295 CNS
XF 498 CNS = system: XF 498 CNS
LXFL 529 NSCLC = system: LXFL 529 NSCLC
ACHN renal = system: ACHN renal

SMILES: O[C@H]1[C@H](O)[C@@H](O)CN2CC[C@H](O)[C@H]12
- TGI (HOP-18 NSCLC): > 100 µM
- TGI (SF-539 CNS): > 100 µM
- TGI (UACC-62 melanoma): > 100 µM
- TGI (SNB-78 CNS): > 100 µM
- TGI (DMS 114 small cell lung): > 100 µM
- TGI (OVCAR-3 ovarian): > 100 µM
- TGI (M19-MEL melanoma): > 79.4 µM
- TGI (DMS 273 small cell lung): > 100 µM
- TGI (DLD-1 colon): > 100 µM
- TGI (KM20L2 colon): > 100 µM
- TGI (RPMI-8226 leukemia): > 100 µM
- TGI (SF-295 CNS): > 100 µM
- TGI (XF 498 CNS): > 100 µM

SMILES: O=C1NC(O)CCN1C1OC(CO)C(O)C1O (stereo not given)
- TGI (HOP-18 NSCLC): > 250 µM
- TGI (SF-539 CNS): > 250 µM
- TGI (UACC-62 melanoma): > 250 µM
- TGI (SNB-78 CNS): > 250 µM
- TGI (DMS 114 small cell lung): > 250 µM
- TGI (OVCAR-3 ovarian): > 250 µM
- TGI (M19-MEL melanoma): > 250 µM
- TGI (DMS 273 small cell lung): > 250 µM
- TGI (DLD-1 colon): > 250 µM
- TGI (KM20L2 colon): > 127 µM
- TGI (RPMI-8226 leukemia): > 250 µM
- TGI (SF-295 CNS): > 250 µM
- TGI (XF 498 CNS): > 250 µM

SMILES: COc1cc(C2c3cc4c(cc3[C@@H](Nc3ccccc3)C3COC(=O)[C@H]23)OCO4)cc(OC)c1O (stereo not given in full)
- TGI (HOP-18 NSCLC): 22.6 µM
- TGI (SF-539 CNS): 1.8 µM
- TGI (UACC-62 melanoma): 2.9 µM
- TGI (SNB-78 CNS): > 91 µM
- TGI (DMS 114 small cell lung): 3.42 µM
- TGI (OVCAR-3 ovarian): 7.34 µM
- TGI (M19-MEL melanoma): 16.6 µM
- TGI (DMS 273 small cell lung): 3.35 µM
- TGI (DLD-1 colon): 6.64 µM
- TGI (KM20L2 colon): > 23.3 µM
- TGI (RPMI-8226 leukemia): 2.23 µM
- TGI (SF-295 CNS): 3.79 µM
- TGI (XF 498 CNS): 7.84 µM

SMILES: CCOC(=O)CNC(=O)NC12CC3CC(CC(C3)C1)C2
- TGI (HOP-18 NSCLC): 537 µM
- TGI (SF-539 CNS): > 550 µM
- TGI (UACC-62 melanoma): 416 µM
- TGI (SNB-78 CNS): > 520 µM
- TGI (DMS 114 small cell lung): > 511 µM
- TGI (OVCAR-3 ovarian): 398 µM
- TGI (M19-MEL melanoma): 369 µM
- TGI (DMS 273 small cell lung): > 550 µM
- TGI (DLD-1 colon): > 87.2 µM
- TGI (KM20L2 colon): > 550 µM
- TGI (RPMI-8226 leukemia): > 550 µM
- TGI (SF-295 CNS): > 550 µM
- TGI (XF 498 CNS): 246 µM

SMILES: CCOC(=O)/C=C1/C(CCCOCc2ccccc2)C2CCCC23CC2(CCN13)OCCO2 (stereo not given)
- TGI (HOP-18 NSCLC): 50 µM
- TGI (LXFL 529 NSCLC): 90.2 µM
- TGI (UACC-62 melanoma): 50 µM
- TGI (SNB-78 CNS): 85.8 µM
- TGI (DMS 114 small cell lung): 32.9 µM
- TGI (OVCAR-3 ovarian): 49.4 µM
- TGI (M19-MEL melanoma): 40 µM
- TGI (DMS 273 small cell lung): 37.9 µM
- TGI (DLD-1 colon): 73.3 µM
- TGI (KM20L2 colon): 56 µM
- TGI (RPMI-8226 leukemia): 25 µM
- TGI (ACHN renal): 83.9 µM
- TGI (SF-295 CNS): > 100 µM
- TGI (XF 498 CNS): 26.8 µM

SMILES: CN1Cc2c(nc(-c3ccccc3)c[n+]2[O-])N(C)C1
- TGI (HOP-18 NSCLC): > 100 µM
- TGI (SF-539 CNS): > 100 µM
- TGI (LXFL 529 NSCLC): > 100 µM
- TGI (UACC-62 melanoma): > 100 µM
- TGI (SNB-78 CNS): > 100 µM
- TGI (DMS 114 small cell lung): > 100 µM
- TGI (OVCAR-3 ovarian): > 100 µM
- TGI (M19-MEL melanoma): > 100 µM
- TGI (DMS 273 small cell lung): > 100 µM
- TGI (DLD-1 colon): > 100 µM
- TGI (KM20L2 colon): > 100 µM
- TGI (RPMI-8226 leukemia): > 100 µM
- TGI (ACHN renal): > 100 µM
- TGI (SF-295 CNS): > 100 µM
- TGI (XF 498 CNS): > 100 µM

SMILES: O=C(NN1C(=O)CS(=O)(=O)C1c1ccc(C(F)(F)F)cc1)c1ccncc1 (stereo not given)
- TGI (HOP-18 NSCLC): > 100 µM
- TGI (LXFL 529 NSCLC): > 100 µM
- TGI (SNB-78 CNS): > 100 µM
- TGI (DMS 114 small cell lung): > 100 µM
- TGI (DMS 273 small cell lung): > 100 µM
- TGI (DLD-1 colon): > 100 µM
- TGI (RPMI-8226 leukemia): > 100 µM
- TGI (ACHN renal): > 100 µM
- TGI (SF-295 CNS): > 100 µM
- TGI (XF 498 CNS): > 100 µM

SMILES: Cc1cc(N(C)C)c2ccccc2[n+]1CCCCCCCCCC[n+]1c(C)cc(N(C)C)c2ccccc21
- TGI (SF-539 CNS): 8.15 µM
- TGI (UACC-62 melanoma): 3.35 µM
- TGI (OVCAR-3 ovarian): 10.5 µM
- TGI (RPMI-8226 leukemia): 4.33 µM
- TGI (ACHN renal): 6.34 µM
- TGI (SF-295 CNS): 8.95 µM

SMILES: C=C(C)[C@H]1C2=CC(C(=O)OC)=C(C[C@H](C(=C)C)[C@@H](O)[C@@H](O)C3=C[C@H]1OC3=O)O2
- TGI (SF-539 CNS): > 100 µM
- TGI (UACC-62 melanoma): > 100 µM
- TGI (OVCAR-3 ovarian): > 100 µM
- TGI (RPMI-8226 leukemia): > 100 µM
- TGI (ACHN renal): > 100 µM
- TGI (SF-295 CNS): > 100 µM

SMILES: C=C(CN(C)C)C(=O)c1ccc(C(=O)C(=C)CN(C)C)cc1
- TGI (HOP-18 NSCLC): > 100 µM
- TGI (SF-539 CNS): > 100 µM
- TGI (LXFL 529 NSCLC): > 100 µM
- TGI (UACC-62 melanoma): > 100 µM
- TGI (OVCAR-3 ovarian): > 100 µM
- TGI (M19-MEL melanoma): > 100 µM
- TGI (DLD-1 colon): > 100 µM
- TGI (KM20L2 colon): > 100 µM
- TGI (RPMI-8226 leukemia): > 100 µM
- TGI (ACHN renal): > 100 µM
- TGI (SF-295 CNS): > 100 µM
- TGI (XF 498 CNS): > 100 µM

SMILES: O=c1c2c(no[n+]2[O-])c2ccccc2n1-c1ccccc1
- TGI (SF-539 CNS): 16 µM
- TGI (UACC-62 melanoma): 13.7 µM
- TGI (OVCAR-3 ovarian): 19.8 µM
- TGI (RPMI-8226 leukemia): 42.8 µM
- TGI (ACHN renal): 42.7 µM
- TGI (SF-295 CNS): 23.5 µM

SMILES: Cc1nc2ccccc2c(-n2cccn2)c1CCn1cccn1
- TGI (SF-539 CNS): > 100 µM
- TGI (UACC-62 melanoma): > 100 µM
- TGI (OVCAR-3 ovarian): > 100 µM
- TGI (RPMI-8226 leukemia): > 100 µM
- TGI (ACHN renal): > 100 µM
- TGI (SF-295 CNS): > 100 µM

SMILES: O=C1N(Cc2ccccc2)C2CSCC2N1Cc1ccccc1 (stereo not given)
- TGI (SF-539 CNS): 76 µM
- TGI (UACC-62 melanoma): 79.2 µM
- TGI (OVCAR-3 ovarian): 43.9 µM
- TGI (RPMI-8226 leukemia): 59 µM
- TGI (ACHN renal): > 100 µM
- TGI (SF-295 CNS): > 100 µM

SMILES: CCN(CC)c1ccc(/C=C/c2ccnc3ccccc23)cc1
- TGI (SF-539 CNS): > 100 µM
- TGI (UACC-62 melanoma): > 100 µM
- TGI (OVCAR-3 ovarian): > 100 µM
- TGI (RPMI-8226 leukemia): > 100 µM
- TGI (ACHN renal): > 100 µM
- TGI (SF-295 CNS): > 100 µM

SMILES: C=CC1(C)CC(=O)C2(O)C(C)(O1)C(OC(C)=O)C(O)C1C(C)(C)CCC(O)C12C (stereo not given)
- TGI (HOP-18 NSCLC): > 138 µM
- TGI (SF-539 CNS): > 150 µM
- TGI (UACC-62 melanoma): 101 µM
- TGI (SNB-78 CNS): > 150 µM
- GI50 (DMS 114 small cell lung): > 71.6 µM
- TGI (DMS 114 small cell lung): > 108 µM
- TGI (OVCAR-3 ovarian): > 150 µM
- TGI (M19-MEL melanoma): > 127 µM
- TGI (DMS 273 small cell lung): > 150 µM
- TGI (DLD-1 colon): > 150 µM
- TGI (KM20L2 colon): > 150 µM
- GI50 (RPMI-8226 leukemia): > 57.2 µM
- TGI (RPMI-8226 leukemia): 120 µM
- TGI (SF-295 CNS): > 150 µM
- TGI (XF 498 CNS): 142 µM

SMILES: CC12c3c4ccc(C=O)c3Oc3ccc(C=O)c(c31)Oc1ccc(C=O)c(c12)O4
- TGI (SF-539 CNS): > 25 µM
- TGI (UACC-62 melanoma): > 25 µM
- TGI (OVCAR-3 ovarian): > 25 µM
- TGI (RPMI-8226 leukemia): > 25 µM
- TGI (ACHN renal): > 25 µM
- TGI (SF-295 CNS): > 25 µM
